Results on 17 compounds are retold here after US20260028354A1, “TETRAHYDRONAPHTHALENE DERIVATIVES AS ESTROGEN RECEPTOR DEGRADERS” (REGENT OF THE UNIVERSITY OF MICHIGAN, priority 2022, published 2026).

Read-outs that look alike come from different tables or passages of the source.

The target of this assay is ER in MCF-7 cells (Homo sapiens (Human), UniProt P03372). The experiment in a line: In-cell Western (ICW) ER degradation assay in MCF-7 cells. Format: cell-based. As to conditions: for DC50: MCF-7, ER degradation, read-out: MCF7 DC50. The text has this:
In-cell Western (ICW) assays in MCF-7 and T47D cell lines.
Day 3: After 16 hrs of compounds treatment, cells were fixed by 4% PFA and permeabilized with elution buffer (0.1% Triton X-100 in 1% PBS Solution). Subsequently, cells were blocked with Intercept (PBS) Blocking Buffer (Li-COR, Odyssey Blocking Buffer), and were stained with ER (1:500, Cell signaling) primary antibody for overnight at cold room.
Day 4: Remove the buffer, add IRDye 800CW Goat anti-Rabbit IgG Secondary Antibody (1:2000) and CellTag 700 Stain (1:500) in Intercept (PBS) Blocking Buffer. Finally, cell plate is placed in incubator to dry. Image and signal were captured on Odyssey® DLx Imaging System.

Where [1] appears, read: MCF7, MCF-7, maximal ER degradation, 16 hrs treatment, read-out: MCF7 Dmax.
Where [2] appears, read: MCF7, read-out: MCF7 Dmax, MCF-7, maximal ER degradation, 16 hrs treatment.

Sequence of ER in MCF-7 cells (P03372 whole entry): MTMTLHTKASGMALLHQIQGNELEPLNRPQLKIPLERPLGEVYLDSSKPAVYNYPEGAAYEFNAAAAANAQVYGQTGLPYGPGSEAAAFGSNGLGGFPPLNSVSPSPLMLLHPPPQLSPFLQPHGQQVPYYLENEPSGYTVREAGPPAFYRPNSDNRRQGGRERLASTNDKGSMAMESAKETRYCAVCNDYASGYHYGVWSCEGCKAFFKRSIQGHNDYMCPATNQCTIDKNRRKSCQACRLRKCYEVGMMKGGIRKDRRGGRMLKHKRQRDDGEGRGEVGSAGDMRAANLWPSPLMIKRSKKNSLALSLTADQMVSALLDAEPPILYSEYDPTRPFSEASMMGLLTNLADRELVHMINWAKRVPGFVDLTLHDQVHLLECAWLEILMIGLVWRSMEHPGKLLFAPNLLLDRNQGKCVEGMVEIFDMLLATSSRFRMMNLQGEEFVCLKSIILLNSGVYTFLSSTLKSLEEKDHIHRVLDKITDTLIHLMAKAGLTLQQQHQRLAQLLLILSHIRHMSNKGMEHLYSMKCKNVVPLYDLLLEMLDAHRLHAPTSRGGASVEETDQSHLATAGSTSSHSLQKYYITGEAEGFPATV

As usually defined, the Dmax is the greatest extent of degradation seen. What is called DC50 is the midpoint of the concentration-degradation curve. For the compound `O=C1CC[C@H](NC(=O)c2ccc3c(n2)OC[C@H]2CN(CC4CCC5(CC4)CN(c4ccc([C@@H]6c7ccc(O)cc7CC[C@@H]6c6ccccc6)cn4)C5)CCN32)C(=O)N1` (single isomer, unassigned) [Compound A127], the Dmax under setting [1] is 50 to 75%. Moreover, under “16 hrs treatment”, the half-maximal degradation concentration (DC50) fell in the range of 1 to 10 nM.

Consider `O=C1CC[C@H](N2Cc3c(ccc4c3OC[C@H]3CN(CC5COC6(CCN(c7ccc([C@H]8c9ccc(O)cc9CC[C@H]8c8ccccc8)cn7)CC6)C5)CCN43)C2=O)C(=O)N1` (single isomer, unassigned) [Compound A137], for which the Dmax under setting [1] is < 25%. In addition, the DC50 (16 hrs treatment) is 1 to 10 nM.

Regarding `O=C1CC[C@H](N2Cc3c(ccc4c3OC[C@H]3CN(C[C@@H]5COC6(CCN(c7ccc([C@@H]8c9ccc(O)cc9CC[C@@H]8c8ccccc8)cn7)CC6)C5)CCN43)C2=O)C(=O)N1` (single isomer, unassigned) [Compound A138], the Dmax under setting [1] is 50 to 75%. Besides, the DC50 (16 hrs treatment) is < 1 nM.

With `O=C1CC[C@H](N2Cc3c(ccc4c3OC[C@H]3CN(CC5CC6(CCN(c7ncc([C@H]8c9ccc(O)cc9CC[C@H]8c8ccccc8)cn7)CC6)C5)CCN43)C2=O)C(=O)N1` (single isomer, unassigned) [Compound A139], the Dmax under setting [1] was 50 to 75%. Further, the DC50 (16 hrs treatment) fell in the range of 1 to 10 nM.

As for `O=C1CC[C@H](N2Cc3cc4c(cc3C2=O)OC[C@@H]2CN(CC3CC5(CCN(c6ncc([C@H]7c8ccc(O)cc8CC[C@H]7c7ccccc7)cn6)CC5)C3)CCN42)C(=O)N1` (single isomer, unassigned) [Compound A143], under setting [1], the Dmax lay within 50 to 75%. Moreover, the DC50 (16 hrs treatment) fell in the range of 10 to 100 nM.

Turning to `O=C1CC[C@H](N2Cc3cc4c(cc3C2=O)OC[C@@H]2CN(CC3CC5(CCN(c6ncc([C@@H]7c8ccc(O)cc8CC[C@@H]7c7ccccc7)cn6)CC5)C3)CCN42)C(=O)N1` (single isomer, unassigned) [Compound A144], the greatest degradation seen (Dmax) under setting [1] fell in the range of 50 to 75%. The DC50 (16 hrs treatment) was 1 to 10 nM.

For the compound `O=C1CC[C@H](N2Cc3c(ccc4c3OC[C@H]3CN(CC5CC6(CCN(c7ccc([C@@H]8c9ccc(O)cc9CC[C@@H]8c8ccccc8)cc7F)CC6)C5)CCN43)C2=O)C(=O)N1` (single isomer, unassigned) [Compound A145], the Dmax under setting [1] was 50 to 75%. Further, the DC50 (16 hrs treatment) lay within 10 to 100 nM.

On to `O=C1CC[C@H](N2Cc3cc4c(cc3C2=O)OC[C@@H]2CN(CC3CC5(CCN(c6ccc([C@H]7c8ccc(O)cc8CC[C@H]7c7ccccc7)cc6F)CC5)C3)CCN42)C(=O)N1` (single isomer, unassigned) [Compound A149], for which, under setting [1], the Dmax was > 75%. Moreover, the DC50 (16 hrs treatment) is 1 to 10 nM.

For the compound `COc1cc(N2CC3(CCC(CN4CCN5c6ccc7c(c6OC[C@H]5C4)CN([C@H]4CCC(=O)NC4=O)C7=O)CC3)C2)c(F)cc1[C@H]1c2ccc(O)cc2CC[C@H]1c1ccccc1` (single isomer, unassigned) [Compound A165], the Dmax under setting [1] fell in the range of 50 to 75%. In addition, where the note is “16 hrs treatment”, the half-maximal degradation concentration (DC50) was 10 to 100 nM.

For the compound `COc1c([C@H]2c3ccc(O)cc3CC[C@H]2c2ccccc2)ccc(N2CCC(CN3CCN4c5cc6c(cc5OC[C@@H]4C3)C(=O)N([C@H]3CCC(=O)NC3=O)C6)CC2)c1F` (single isomer, unassigned) [Compound A170], the Dmax under setting [1] is 25 to 50%. The DC50 (16 hrs treatment) lay within 10 to 100 nM.

Consider `COc1c([C@@H]2c3ccc(O)cc3CC[C@@H]2c2ccccc2)ccc(N2CCC(CN3CCN4c5cc6c(cc5OC[C@@H]4C3)C(=O)N([C@H]3CCC(=O)NC3=O)C6)CC2)c1F` (single isomer, unassigned) [Compound A171], for which the maximal degradation (Dmax) under setting [1] is > 75%. Besides, the 50% degradation concentration (DC50) (16 hrs treatment) was < 1 nM.

As to `O=C1CC[C@H](N2Cc3cc4c(cc3C2=O)OCC42CCN(CC3CCC4(CC3)CN(c3ccc([C@@H]5c6ccc(O)cc6CC[C@@H]5c5ccccc5)cn3)C4)CC2)C(=O)N1` [Compound A128, (S)-3-(1′-((2-(5-((1S,2S)-6-hydroxy-2-phenyl-1,2,3,4-tetrahydronaphthalen-1-yl)pyridin-2-yl)-2-azaspiro[3.5]nonan-7-yl)methyl)-7-oxo-5,7-dihydro-2H,6H-spiro[furo[2,3-f]isoindole-3,4′-piperidin]-6-yl)piperidine-2,6-dione], the Dmax under setting [2] was 50 to 75%. Also, the DC50 (16 hrs treatment) lay within 1 to 10 nM.

As for `O=C1CC[C@H](N2Cc3cc4c(cc3C2=O)OC[C@@H]2CN(CC3CCC5(CC3)CN(c3ccc([C@@H]6c7ccc(O)cc7CC[C@@H]6c6ccccc6)cn3)C5)CCN42)C(=O)N1` [Compound A130, (S)-3-((S)-3-((2-(5-((1S,2S)-6-hydroxy-2-phenyl-1,2,3,4-tetrahydronaphthalen-1-yl)pyridin-2-yl)-2-azaspiro[3.5]nonan-7-yl)methyl)-8-oxo-1,2,3,4,4a,5,8,10-octahydro-9H-pyrazino[1′,2′:4,5][1,4]oxazino[2,3-f]isoindol-9-yl)piperidine-2,6-dione], the DC50 (16 hrs treatment) fell in the range of 1 to 10 nM. Also, under “MCF-7, maximal ER degradation, 16 hrs treatment”, the “MCF7 Dmax” value is reported as “A (“A”: >=75%)”.

Turning to `O=C1CC[C@H](N2Cc3c(ccc4c3OCC43CCN(CC4CC5(CCN(c6ccc([C@@H]7c8ccc(O)cc8CC[C@@H]7c7ccccc7)cc6F)CC5)C4)CC3)C2=O)C(=O)N1` [Compound A146, (S)-3-(1′-((7-(2-fluoro-4-((1R,2S)-6-hydroxy-2-phenyl-1,2,3,4-tetrahydronaphthalen-1-yl)phenyl)-7-azaspiro[3.5]nonan-2-yl)methyl)-6-oxo-6,8-dihydro-2H,7H-spiro[furo[2,3-e]isoindole-3,4′-piperidin]-7-yl)piperidine-2,6-dione], under setting [2], the Dmax is 25 to 50%. For the same compound, the DC50 (16 hrs treatment) was 10 to 100 nM.

For the compound `COc1cc(N2CCC3(CC2)CC(CN2CCC4(CC2)COc2cc5c(cc24)CN([C@H]2CCC(=O)NC2=O)C5=O)C3)ccc1[C@@H]1c2ccc(O)cc2CC[C@@H]1c1ccccc1` [Compound A162, (S)-3-(1′-((7-(4-((1S,2S)-6-hydroxy-2-phenyl-1,2,3,4-tetrahydronaphthalen-1-yl)-3-methoxyphenyl)-7-azaspiro [3.5]nonan-2-yl)methyl)-7-oxo-5,7-dihydro-2H,6H-spiro[furo [2,3-f]isoindole-3,4′-piperidin]-6-yl)piperidine-2,6-dione], the Dmax under setting [2] lay within 25 to 50%. Also, under “16 hrs treatment”, the DC50 is < 1 nM.

In the case of `COc1cc(N2CC3(CCC(CN4CCC5(CC4)COc4cc6c(cc45)CN([C@H]4CCC(=O)NC4=O)C6=O)CC3)C2)c(F)cc1[C@@H]1c2ccc(O)cc2CC[C@@H]1c1ccccc1` [Compound A167, (S)-3-(1′-((2-(2-fluoro-4-((1S, 2S)-6-hydroxy-2-phenyl-1,2,3,4-tetrahydronaphthalen-1-yl)-5-methoxyphenyl)-2-aza-spiro[3.5]nonan-7-yl)methyl)-7-oxo-5,7-dihydro-2H,6H-spiro [furo[2,3-f]isoindole-3,4′-piper-idin]-6-yl)piperidine-2,6-dione], the Dmax under setting [2] lay within 50 to 75%. For the same compound, under “16 hrs treatment”, the DC50 is < 1 nM.

On to `COc1cc(N2CC3(CCC(CN4CCC5(CC4)COc4c5ccc5c4CN([C@H]4CCC(=O)NC4=O)C5=O)CC3)C2)c(F)cc1[C@H]1c2ccc(O)cc2CC[C@H]1c1ccccc1` [Compound A168, (S)-3-(1′-((2-(2-fluoro-4-((1R,2R)-6-hydroxy-2-phenyl-1,2,3,4-tetrahydronaphthalen-1-yl)-5-methoxyphenyl)-2-azaspiro[3.5]nonan-7-yl)methyl)-6-oxo-6,8-dihydro-2H,7H-spiro[furo[2,3-e]isoindole-3,4′-piperidin]-7-yl)piperidine-2,6-dione], for which, under setting [2], the Dmax is 50 to 75%. For the same compound, the DC50 (16 hrs treatment) was 1 to 10 nM.
